From paper PMC9283466, “In silico identification of two peptides with antibacterial activity against multidrug-resistant Staphylococcus aureus” (NPJ Biofilms and Microbiomes, 2022)
Values after ≈ are worked out from the molar mass of the structure shown. Where two headings read alike, the source gives them in different places. Each block holds one compound with its values, some of them ahead of it. Peptide text beside a SMILES is read from it.

Key:
S. aureus EMRSA-15 = assay: microbe, parasite or virus in culture; assay type: cell-based, Staphylococcus aureus; conditions: Staphylococcus aureus
Protocol: (§1) To determine the antimicrobial activity of the new antimicrobial peptides, HG2 and HG4, their minimum inhibitory concentrations (MICs) were determined by broth microdilution method[51] in cation adjusted Mueller Hinton broth (MHB) following the International Organisation for Standardisation (ISO) 20776-1 standard for MIC testing using a final bacterial inoculum of 5 × 10^5 CFU/ml[52]. […] The peptides dissolved in sterile distilled water were added to bacteria culture and incubated overnight at appropriate conditions. The MICs of the peptides and comparator antibiotics were recorded after 18–24 h. The minimum bactericidal concentrations (MBCs) were also determined and were taken as the lowest concentration of the antimicrobial that prevented the growth of bacterial cells after the subculture of cells (from MIC treatment) onto antibiotic-free media.

S. aureus ATCC 33591 = assay: microbe, parasite or virus in culture; assay type: cell-based, Staphylococcus aureus; conditions: Staphylococcus aureus
Protocol: as §1

[1] = tested on: S. aureus USA300 BAA-1717; assay: microbe, parasite or virus in culture; assay type: cell-based, Staphylococcus aureus; conditions: Staphylococcus aureus, BAA-1717 / MRSA / USA300
Protocol: as §1

E. coli = assay: microbe, parasite or virus in culture; assay type: cell-based, Escherichia coli
Protocol: as §1

S. aureus = assay: microbe, parasite or virus in culture; assay type: cell-based, Staphylococcus aureus
Protocol: as §1

EMRA-15 = assay: microbe, parasite or virus in culture; assay type: cell-based, Staphylococcus aureus
Protocol: as §1

List. monocytogenes = assay: microbe, parasite or virus in culture; assay type: cell-based, Listeria monocytogenes
Protocol: as §1

Ent. faecalis = assay: microbe, parasite or virus in culture; assay type: cell-based, Enterococcus faecalis
Protocol: as §1

P. aeruginosa = assay: microbe, parasite or virus in culture; assay type: cell-based, Pseudomonas aeruginosa
Protocol: as §1

Sal. typhimurium = assay: microbe, parasite or virus in culture; assay type: cell-based, Salmonella enterica serovar Typhimurium
Protocol: as §1

MRSA USA300 cells [2] = assay: Serial passage / resistance assay; assay type: cell-based, Staphylococcus aureus; conditions: sub-MIC exposure over 20 days, MRSA USA300
Protocol: In vitro evaluation of the potential for MRSA USA3000 cells to develop resistance to HG2 and HG4 was performed as follows. […] Cultures from the highest concentration that supported growth were diluted 1: 1000 in MHB and used to provide the inoculum for the next passage day. This process was performed for a total duration of 20 days. Any putative mutants recovered were isolated via streak dilution for three generations on MHA, prior to further characterisation.

MRSA USA300 cells [3] = assay: Time-kill kinetics; assay type: cell-based, Staphylococcus aureus; conditions: 3x MIC, comparator antibiotics, time not stated
Protocol: The bactericidal activity of HG2, HG4 and comparator antimicrobial compounds was assessed using exponential-phase cultures[14] of MRSA USA300 grown in MHB (1 × 10^6-8 CFU/ml). […] Samples were taken at different time points, serially diluted and inoculated onto MH agar plates using the spread plate technique. After overnight incubation, the colony-forming units per millilitre of cell culture (CFU/ml) was calculated. Experiments were performed in quadruplicates.

[4] = tested on: LTA-driven NF-kB activation, eLUCidate Raw 264.7 NF-kB reporter cell line; assay: Anti-inflammatory activity, NF-kB luciferase reporter; assay type: cell-based, murine; conditions: Mus musculus, RAW264.7; 10 µg/ml LTA from S. aureus, 6 h; read-out: IC50, LTA-mediated inflammation
Protocol: (§2) The inhibitory activity of HG2, HG4 and comparator compounds against LPS and LTA was assessed using eLUCidate™ Raw 264.7 NF-kB reporter cell line (AMSBIO) as previously described. The eLUCidate NF-kB reporter cell line is a stably transfected Raw 264.7 cell line which expresses the Renilla luciferase reporter gene under the transcriptional control of the NF-kB response element, a key transcription factor involved in immune and inflammatory responses. This reporter cell line has been used to measure the induction of various toll-like receptors (TLR) by ligands, including LPS and LTA, therefore providing an effective way to evaluate inhibitors of their activations. Briefly, cells were grown and maintained following the manufacturer’s instructions in Dulbecco’s modified essential medium (DMEM) supplemented with 10% fetal calf serum (FCS), 1% L-glutamine, 1% antibiotics (Invitrogen) and containing 3 µg/ml of puromycin (Sigma-Aldrich, UK). To test the inhibitory activity of HG2 and HG4 on LPS or LTA-driven NF-kB activation, eLUCidate™ Raw 264.7 cells grown on 75 cm^2 flasks were detached using trypsin-EDTA solution (Thermofisher, UK) and seeded into 96-well cell culture plates (Greiner Bio-one, UK) at ~25,000 cells per well (counted using Mallasez’s chamber). The next day, wells were emptied, and cells were exposed to optimal concentrations of LPS or LTA determined from preliminary experiments, (i.e. 10 ng/ml of LPS from E. coli or 10 µg/ml of LTA from S. aureus (Invivogen, UK)) in the presence of increasing concentrations of HG2 or HG4 (from 0 to 500 µg/ml, serial 1:2 dilutions). Pyrrolidine dithiocarbamate (PDTC, 100 µM) and polymyxin B (PMB, 100 µM) (Sigma-Aldrich, UK) were used as positive controls based on their well-known activity as anti-inflammatory molecules and blockers/neutralisers of LPS and LTA, respectively. Importantly, all steps were performed using non-pyrogenic plastics and RNase/DNase molecular biology tips to limit the risk of the presence of a trace of LPS/LTA. After 6 h incubation at 37 °C and 5% CO2, wells were emptied, and the cells were treated with 70 µl of ice-cold PBS containing 1% Triton X-100. After 10 min incubation on ice under orbital shaking at 200 rpm, 50 µL of cell lysates were collected and transferred into white 96-well luminescence plates (Dominique Dutscher) already containing 100 µL of Renilla luciferase substrate (Yelen, France). Luminescence signals of the wells were immediately measured using a microplate reader (Biotek Synergy Mx, UK). The luminescence values were expressed as a percentage of control inflammation corresponding to values obtained after treatment with LPS or LTA in the absence of an inhibitor. The IC50 values of PDTC, PMB, HG2 or HG4 on LPS or LTA-mediated inflammation (i.e. the concentration of molecule causing a reduction of 50% of the luciferase’s induction caused by LPS or LTA) were calculated using GraphPad® Prism 7 software.

[5] = tested on: LPS-driven NF-kB activation, eLUCidate Raw 264.7 NF-kB reporter cell line; assay: as above; assay type: cell-based, murine; conditions: Mus musculus, RAW264.7; 10 ng/ml LPS from E. coli, 6 h; read-out: IC50, LPS-mediated inflammation
Protocol: as §2

S. aureus RN4220 = assay: MIC, broth microdilution; assay type: cell-based, Staphylococcus aureus; conditions: Staphylococcus aureus, sensitive, read-out: MIC
Protocol: as §1

E. coli K12 = assay: microbe, parasite or virus in culture; assay type: cell-based, Escherichia coli; conditions: Escherichia coli, K12
Protocol: as §1

[6] = tested on: L. monocytogenes NCTC 11994; assay: microbe, parasite or virus in culture; assay type: cell-based, Listeria monocytogenes; conditions: Listeria monocytogenes, NCTC11994
Protocol: as §1

Ent. faecalis JH2-2 = assay: microbe, parasite or virus in culture; assay type: cell-based, Enterococcus faecalis; conditions: Enterococcus faecalis, JH22
Protocol: as §1

P. aeruginosa PA01 = assay: microbe, parasite or virus in culture; assay type: cell-based, Pseudomonas aeruginosa; conditions: Pseudomonas aeruginosa, PA01
Protocol: as §1

Sal. typhimurium SL1344 = assay: microbe, parasite or virus in culture; assay type: cell-based, Salmonella enterica serovar Typhimurium; conditions: Salmonella enterica, TYPHIMURIUM
Protocol: as §1

[7] = S. aureus USA300 BAA-1717, MRSA, read-out: MIC

- MIC (S. aureus EMRSA-15; S. aureus EMRSA-15, resistances MRSA, Cip, read-out: MIC): 1 µg/mL (≈ 2.77 µM)
- MIC (S. aureus ATCC 33591; S. aureus ATCC 33591, MRSA, read-out: MIC): 0.015 µg/mL (≈ 0.0415 µM)
- MIC [1, 7]: 0.0075 µg/mL (≈ 0.0208 µM)
Structure (SMILES): C[C@H]1COc2c(N3CCN(C)CC3)c(F)cc3c(=O)c(C(=O)O)cn1c23 [Levof, levofloxacin]

- Minimum inhibitory Concentrations MICs (E. coli): > 1024 µg/mL
- Minimum inhibitory Concentrations MICs (S. aureus): > 1024 µg/mL
- Minimum inhibitory Concentrations MICs (EMRA-15): > 1024 µg/mL
- Minimum inhibitory Concentrations MICs (List. monocytogenes): > 1024 µg/mL
- Minimum inhibitory Concentrations MICs (Ent. faecalis): > 1024 µg/mL
- Minimum inhibitory Concentrations MICs (P. aeruginosa): > 1024 µg/mL
- Minimum inhibitory Concentrations MICs (Sal. typhimurium): > 1024 µg/mL
Structure (SMILES): CC[C@H](C)[C@H](NC(=O)[C@H](CC(C)C)NC(=O)[C@H](CC(C)C)NC(=O)[C@H](CC(C)C)NC(=O)[C@H](CCCCN)NC(=O)[C@H](CCCCN)NC(=O)[C@@H](N)CCSC)C(=O)N[C@@H](CC(C)C)C(=O)N[C@@H](Cc1ccccc1)C(=O)N[C@@H](CS)C(=O)N[C@@H](CC(C)C)C(=O)N[C@@H](C)C(=O)N[C@@H](CC(C)C)C(=O)N[C@@H](C)C(=O)N[C@@H](CC(C)C)C(=O)N[C@@H](C)C(=O)NCC(=O)N[C@@H](CS)C(=O)N[C@@H](CCCCN)C(=O)N[C@@H](CCCCN)C(=O)N[C@@H](C)C(=O)N1CCC[C@H]1C(N)=O [Linear HG2] (H-MKKLLLILFCLALALAGCKKAP-NH2; N-terminus and C-terminus assumed)

Structure (SMILES): C/C(=C\C(=O)OCCCCCCCCC(=O)O)C[C@@H]1OC[C@H](C[C@@H]2O[C@H]2[C@@H](C)[C@H](C)O)[C@@H](O)[C@H]1O [Mupirocin, reference compound]
- fold increase in MIC during serial passage (MRSA USA300 cells [2]): 32 fold
- MIC [1, 7]: 0.12 µg/mL (≈ 0.24 µM)
- reduction in viable cells (time-kill) (MRSA USA300 cells [3]): ≥ 2 log10 CFU/ml

- IC50 [4]: 10.8 ± 1.29 µg/mL
- IC50 [5]: 10.7 ± 1.2 µg/mL
Structure (SMILES): S=C(S)N1CCCC1 [PDTC, Pyrrolidine dithiocarbamate, reference compound]

Structure (SMILES): CN[C@H](CC(C)C)C(=O)N[C@H]1C(=O)N[C@@H](CC(N)=O)C(=O)N[C@H]2C(=O)N[C@H]3C(=O)N[C@H](C(=O)N[C@H](C(=O)O)c4cc(O)cc(O)c4-c4cc3ccc4O)[C@H](O)c3ccc(c(Cl)c3)Oc3cc2cc(c3O[C@@H]2O[C@H](CO)[C@@H](O)[C@H](O)[C@H]2O[C@H]2C[C@](C)(N)[C@H](O)[C@H](C)O2)Oc2ccc(cc2Cl)[C@H]1O [Vancomycin]
- MIC (S. aureus RN4220): 1 µg/mL (≈ 0.69 µM)
- MIC (E. coli K12): 128 µg/mL (≈ 88.3 µM)
- MIC (S. aureus EMRSA-15; MRSA): 2 µg/mL (≈ 1.38 µM)
- MIC (S. aureus ATCC 33591; ATCC 33591 / MRSA): 2 µg/mL (≈ 1.38 µM)
- MIC [1]: 2 µg/mL (≈ 1.38 µM)
- MIC [6]: 64 µg/mL (≈ 44.2 µM)
- MIC (Ent. faecalis JH2-2): 64 µg/mL (≈ 44.2 µM)
- reduction in viable cells (time-kill) (MRSA USA300 cells [3]): ≥ 2 log10 CFU/ml
- MIC (P. aeruginosa PA01): 64 µg/mL (≈ 44.2 µM)
- MIC (Sal. typhimurium SL1344): 256 µg/mL (≈ 177 µM)
